Measurements as given in US9234006B2, “Compounds” (Novacta Biosystems Limited, priority 2011, dated 2016).
Counter-ions that a name gives are not always drawn. Where a SMILES comes first, the peptide text is derived from it. Bridges are numbered along the chain shown (N, C = ends). [ ]: non-standard residue; d: D form. The star is where a group is joined. ξ: configuration not given here. Thr(3ξ) = CC(O)[C@H](N)C(=O)O; Dab = NCC[C@H](N)C(=O)O; Aoc = NCCCCCCCC(=O)O; X2 = NC1CCCC1C(=O)*; Ahx = NCCCCCC(=O)O; X3 = O=C(C1CCNC1)*; Ava = NCCCCC(=O)O

What was measured:
Assay in all cases: MIC susceptibility testing, broth microdilution in CaMHB
E. coli ATCC700928 = format: cell-based, Escherichia coli
Procedure: (§1) To evaluate the potency and spectrum of the compounds, susceptibility testing was performed against four strains of each of the four Gram negative pathogens, Escherichia coli, Pseudomonas aeruginosa, Klebsiella pneumoniae and Acinetobacter baumannii.
(§2) The day before testing, 3 to 4 colonies were picked from fresh Mueller-Hinton Agar (MHA) plate and transferred into 10 mL of Cation adjusted MHB (CaMHB). Cultures were incubated at 37° C. 250 rpm for 18-20 hours before being diluted 100-fold in fresh CaMHB. The subcultures were grown further until the OD600 reached 0.2-0.3 corresponding to […]. The actively growing cultures were diluted 100-fold in fresh medium and used for the inoculum.
(§3) The assays were performed in duplicate.
(§4) Data was obtained under similar conditions to Table 4 except that different batches of cation-adjusted Muller-Hinton broth were used. The MIC values for these compounds are compared with those values obtained for Polymyxin B, Colistin Sulphate, CB-182,804 and NAB739 (as the TFA salt). CB-182,804 is a polymyxin decapeptide derivative with an aryl urea substituent at the N-terminus, which has been claimed to have lower toxicity than Polymyxin B (compound 5 in WO 2010/075416. See page 37). NAB739 has been described previously by Vaara et al.

E. coli NCTC12900 = format: cell-based, Escherichia coli
Procedure: as §1, §2, §3, §4

E. coli ATCC25922 = format: cell-based, Escherichia coli
Procedure: as §1, §2, §3, §4

E. coli NCTC9001 = format: cell-based, Escherichia coli
Procedure: as §1, §2, §3, §4

A. baumannii NCTC7844 = format: cell-based, Acinetobacter baumannii
Procedure: as §1, §2, §3, §4

A. baumannii NCTC13423 = format: cell-based, Acinetobacter baumannii
Procedure: as §1, §2, §3, §4

A. baumannii ATCCBAA-747 = format: cell-based, Acinetobacter baumannii
Procedure: as §1, §2, §3, §4

A. baumannii ATCC19606 = format: cell-based, Acinetobacter baumannii
Procedure: as §1, §2, §3, §4

K. pneumoniae NCTC8172 = format: cell-based, Klebsiella pneumoniae
Procedure: as §1, §2, §3, §4

K. pneumoniae NCTC7427 = format: cell-based, Klebsiella pneumoniae
Procedure: as §1, §2, §3, §4

K. pneumoniae ATCC 4352 = format: cell-based, Klebsiella pneumoniae
Procedure: as §1, §2, §3, §4

[1] = system: K. pneumoniae ATCCBAA-1706; format: cell-based, Klebsiella pneumoniae
Procedure: as §1, §2, §3, §4

P. aeruginosa ATCC 9721 = format: cell-based, Pseudomonas aeruginosa
Procedure: as §1, §2, §3, §4

P. aeruginosa ATCC10145 = format: cell-based, Pseudomonas aeruginosa
Procedure: as §1, §2, §3, §4

[2] = system: P. aeruginosa ATCCCRM-9027; format: cell-based, Pseudomonas aeruginosa
Procedure: as §1, §2, §3, §4

P. aeruginosa ATCC27853 = format: cell-based, Pseudomonas aeruginosa
Procedure: as §1, §2, §3, §4

[3] = K. pneumoniae ATCC 4352, Table 4
[4] = P. aeruginosa ATCC 9721, Table 4
[5] = P. aeruginosa ATCCCRM-9027, Table 4
[6] = Table 4A, different batches of cation-adjusted Muller-Hinton broth

SMILES: CC(C)C[C@@H]1NC(=O)[C@@H](Cc2ccccc2)NC(=O)[C@H](CCN)NC(=O)[C@@H](NC(=O)[C@H](CCN)NC(=O)[C@@H](NC(=O)CCCCCCCN)C(C)O)CCNC(=O)[C@H](C(C)O)NC(=O)[C@H](CCN)NC(=O)[C@H](CCN)NC1=O (stereo partly shown) [Example 9, 8-Aminooctanoyl Polymyxin B Nonapeptide, Sulphate Salt] (H-[Aoc][Thr(3ξ)][Dab][Dab][Dab][dF]L[Dab][Dab][Thr(3ξ)]; lactam 4-C)
- MIC (E. coli ATCC700928; Table 4): 1 micrograms/mL
- MIC (E. coli NCTC12900; Table 4): 1 micrograms/mL
- MIC (E. coli ATCC25922; Table 4): 2 micrograms/mL
- MIC (E. coli NCTC9001; Table 4): 2 micrograms/mL
- MIC (A. baumannii NCTC7844; Table 4): >32 micrograms/mL
- MIC (A. baumannii NCTC13423; Table 4): >32 micrograms/mL
- MIC (A. baumannii ATCCBAA-747; Table 4): >32 micrograms/mL
- MIC (A. baumannii ATCC19606; Table 4): 16 micrograms/mL
- MIC (K. pneumoniae NCTC8172; Table 4): >32 micrograms/mL
- MIC (K. pneumoniae NCTC7427; Table 4): 0.5 micrograms/mL
- MIC (K. pneumoniae ATCC 4352; [3]): 0.5 micrograms/mL
- MIC ([1]; Table 4): 0.5 micrograms/mL
- MIC (P. aeruginosa ATCC 9721; [4]): 0.5 micrograms/mL
- MIC (P. aeruginosa ATCC10145; Table 4): 2 micrograms/mL
- MIC [2, 5]: 0.5 micrograms/mL
- MIC (P. aeruginosa ATCC27853; Table 4): 0.5 micrograms/mL

SMILES: CC(C)C[C@@H]1NC(=O)[C@@H](Cc2ccccc2)NC(=O)[C@H](CCN)NC(=O)[C@@H](NC(=O)[C@H](CCN)NC(=O)[C@@H](NC(=O)CN)C(C)O)CCNC(=O)[C@H](C(C)O)NC(=O)[C@H](CCN)NC(=O)[C@H](CCN)NC1=O (stereo partly shown) [Example 3, 2-Aminoethanoyl Polymyxin B Nonapeptide, Sulphate Salt] (H-G[Thr(3ξ)][Dab][Dab][Dab][dF]L[Dab][Dab][Thr(3ξ)]; lactam 4-C)
- MIC (E. coli ATCC700928; Table 4): 4 micrograms/mL
- MIC (E. coli NCTC12900; Table 4): 8 micrograms/mL
- MIC (E. coli ATCC25922; Table 4): 2 micrograms/mL
- MIC (E. coli NCTC9001; Table 4): 4 micrograms/mL
- MIC (A. baumannii NCTC7844; Table 4): 16 micrograms/mL
- MIC (A. baumannii NCTC13423; Table 4): 16 micrograms/mL
- MIC (A. baumannii ATCCBAA-747; Table 4): >32 micrograms/mL
- MIC (A. baumannii ATCC19606; Table 4): 2 micrograms/mL
- MIC (K. pneumoniae NCTC8172; Table 4): >32 micrograms/mL
- MIC (K. pneumoniae NCTC7427; Table 4): 0.5 micrograms/mL
- MIC (K. pneumoniae ATCC 4352; [3]): 1 micrograms/mL
- MIC ([1]; Table 4): 16 micrograms/mL
- MIC (P. aeruginosa ATCC 9721; [4]): 0.125 micrograms/mL
- MIC (P. aeruginosa ATCC10145; Table 4): 0.25 micrograms/mL
- MIC [2, 5]: 0.125 micrograms/mL
- MIC (P. aeruginosa ATCC27853; Table 4): 0.5 micrograms/mL

SMILES: CC(C)C[C@@H]1NC(=O)[C@@H](Cc2ccccc2)NC(=O)[C@H](CCN)NC(=O)[C@@H](NC(=O)[C@H](CCN)NC(=O)[C@@H](NC(=O)CCCCCN)C(C)O)CCNC(=O)[C@H](C(C)O)NC(=O)[C@H](CCN)NC(=O)[C@H](CCN)NC1=O (stereo partly shown) [Example 7, 6-Aminohexanoyl Polymyxin B Nonapeptide, Sulphate Salt] (H-[Ahx][Thr(3ξ)][Dab][Dab][Dab][dF]L[Dab][Dab][Thr(3ξ)]; lactam 4-C)
- MIC (E. coli NCTC12900; Table 4): 4 micrograms/mL
- MIC (E. coli ATCC25922; Table 4): 2 micrograms/mL
- MIC (E. coli NCTC9001; Table 4): 8 micrograms/mL
- MIC (A. baumannii NCTC7844; Table 4): 16 micrograms/mL
- MIC (A. baumannii NCTC13423; Table 4): 0.5 micrograms/mL
- MIC (A. baumannii ATCCBAA-747; Table 4): 8 micrograms/mL
- MIC (K. pneumoniae NCTC8172; Table 4): >32 micrograms/mL
- MIC (K. pneumoniae NCTC7427; Table 4): 0.25 micrograms/mL
- MIC (K. pneumoniae ATCC 4352; [3]): 0.5 micrograms/mL
- MIC ([1]; Table 4): 0.06 micrograms/mL
- MIC [2, 5]: 0.25 micrograms/mL
- MIC (P. aeruginosa ATCC27853; Table 4): 0.5 micrograms/mL

SMILES: CC(C)C[C@@H]1NC(=O)[C@@H](Cc2ccccc2)NC(=O)[C@H](CCN)NC(=O)[C@@H](NC(=O)[C@H](CCN)NC(=O)[C@@H](NC(=O)C2CCNC2)C(C)O)CCNC(=O)[C@H](C(C)O)NC(=O)[C@H](CCN)NC(=O)[C@H](CCN)NC1=O (stereo partly drawn) [Example 13, [3-(R,S)-Pyrrolidine-3-carbonyl] Polymyxin B Nonapeptide, Sulphate Salt] (X3-[Thr(3ξ)][Dab][Dab][Dab][dF]L[Dab][Dab][Thr(3ξ)]; lactam 3-C)
- MIC (E. coli ATCC700928; Table 4): 0.25 micrograms/mL
- MIC (E. coli NCTC12900; Table 4): 2 micrograms/mL
- MIC (E. coli ATCC25922; Table 4): 0.5 micrograms/mL
- MIC (A. baumannii NCTC7844; Table 4): 4 micrograms/mL
- MIC (A. baumannii NCTC13423; Table 4): 2 micrograms/mL
- MIC (A. baumannii ATCCBAA-747; Table 4): 4 micrograms/mL
- MIC (A. baumannii ATCC19606; Table 4): 0.5 micrograms/mL
- MIC (K. pneumoniae NCTC8172; Table 4): 4 micrograms/mL
- MIC (K. pneumoniae NCTC7427; Table 4): 0.25 micrograms/mL
- MIC (K. pneumoniae ATCC 4352; [3]): 0.5 micrograms/mL
- MIC ([1]; Table 4): 1 micrograms/mL
- MIC (P. aeruginosa ATCC 9721; [4]): 0.125 micrograms/mL
- MIC (P. aeruginosa ATCC10145; Table 4): 0.5 micrograms/mL
- MIC [2, 5]: 2 micrograms/mL
- MIC (P. aeruginosa ATCC27853; Table 4): 0.25 micrograms/mL

SMILES: CC(C)C[C@@H]1NC(=O)[C@@H](Cc2ccccc2)NC(=O)[C@H](CCN)NC(=O)[C@@H](NC(=O)[C@H](CCN)NC(=O)[C@@H](NC(=O)C2CCCC2N)C(C)O)CCNC(=O)[C@H](C(C)O)NC(=O)[C@H](CCN)NC(=O)[C@H](CCN)NC1=O (stereo partly drawn) [Example 11, (1R,S/2R,S)-2-Aminocyclopentanecarbonyl Polymyxin B Nonapeptide, Sulphate Salt] (X2-[Thr(3ξ)][Dab][Dab][Dab][dF]L[Dab][Dab][Thr(3ξ)]; lactam 3-C)
- MIC (E. coli ATCC700928; Table 4): 0.125 micrograms/mL
- MIC (E. coli NCTC12900; Table 4): 2 micrograms/mL
- MIC (E. coli ATCC25922; Table 4): 2 micrograms/mL
- MIC (E. coli NCTC9001; Table 4): 0.5 micrograms/mL
- MIC (A. baumannii NCTC7844; Table 4): 4 micrograms/mL
- MIC (A. baumannii NCTC13423; Table 4): 0.5 micrograms/mL
- MIC (A. baumannii ATCCBAA-747; Table 4): 1 micrograms/mL
- MIC (A. baumannii ATCC19606; Table 4): 2 micrograms/mL
- MIC (K. pneumoniae NCTC8172; Table 4): 2 micrograms/mL
- MIC (K. pneumoniae NCTC7427; Table 4): 0.25 micrograms/mL
- MIC (K. pneumoniae ATCC 4352; [3]): 0.5 micrograms/mL
- MIC ([1]; Table 4): 0.25 micrograms/mL
- MIC (P. aeruginosa ATCC 9721; [4]): 0.25 micrograms/mL
- MIC (P. aeruginosa ATCC10145; Table 4): 0.25 micrograms/mL
- MIC [2, 5]: 0.125 micrograms/mL
- MIC (P. aeruginosa ATCC27853; Table 4): 0.125 micrograms/mL

SMILES: CC(C)C[C@@H]1NC(=O)[C@@H](Cc2ccccc2)NC(=O)[C@H](CCN)NC(=O)[C@@H](NC(=O)[C@H](CCN)NC(=O)[C@@H](NC(=O)CCCCN)C(C)O)CCNC(=O)[C@H](C(C)O)NC(=O)[C@H](CCN)NC(=O)[C@H](CCN)NC1=O (stereo partly shown) [Example 15, 5-Aminopentanoyl polymyxin B nonapeptide] (H-[Ava][Thr(3ξ)][Dab][Dab][Dab][dF]L[Dab][Dab][Thr(3ξ)]; lactam 4-C)
- MIC (E. coli ATCC700928; [6]): 1 micrograms/mL
- MIC (E. coli NCTC12900; [6]): 2 micrograms/mL
- MIC (E. coli ATCC25922; [6]): 2 micrograms/mL
- MIC (E. coli NCTC9001; [6]): 2 micrograms/mL
- MIC (A. baumannii NCTC7844; [6]): 8 micrograms/mL
- MIC (A. baumannii NCTC13423; [6]): 4 micrograms/mL
- MIC (A. baumannii ATCCBAA-747; [6]): 8 micrograms/mL
- MIC (A. baumannii ATCC19606; [6]): 1 micrograms/mL
- MIC (K. pneumoniae NCTC8172; [6]): 4 micrograms/mL
- MIC (K. pneumoniae NCTC7427; [6]): 0.25 micrograms/mL
- MIC (K. pneumoniae ATCC 4352; K. pneumoniae ATCC4352, Table 4A, different batches of cation-adjusted Muller-Hinton broth): 0.5 micrograms/mL
- MIC [1, 6]: 0.5 micrograms/mL
- MIC (P. aeruginosa ATCC 9721; P. aeruginosa ATCC9721, Table 4A, different batches of cation-adjusted Muller-Hinton broth): 0.125 micrograms/mL
- MIC (P. aeruginosa ATCC10145; [6]): 1 micrograms/mL
- MIC ([2]; P. aeruginosa AATCCRM 9027, Table 4A, different batches of cation-adjusted Muller-Hinton broth): 0.125 micrograms/mL
- MIC (P. aeruginosa ATCC27853; [6]): 0.25 micrograms/mL
